# Measured values: patent publication US10471046B2, “Method for treating, preventing, or reducing the risk of skin infection” (Melinta Subsidiary Corp., priority 2014, dated 2019)
# System: S. aureus
# Assay: Minimum inhibitory concentrations (MICs) for S. aureus of exemplary compounds (Table 2)
# Type: cell-based
# Details: Staphylococcus aureus, minimum inhibitory concentrations for S. aureus; read-out: MICs
# How it was run: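 Growth of S. aureus in media with or without compound, by broth microdilution in microtiter trays following NCCLS M7-A5 guidelines. Values are MICs in μg/mL.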
row,Compound,MIC [µg/mL]
1,"CC(=O)NC[C@H]1CN(c2ccc(-c3ccc(CNC(=O)Nc4cccc(F)c4)cc3)c(F)c2)C(=O)O1 [Compound 5013, N-(3-{2-Fluoro-4′-[3-(3-fluoro-phenyl)-ureidomethyl]-biphenyl-4-yl}-2-oxo-oxazolidin-5-(S)-ylmethyl)-acetamide]",32
2,"CC(=O)NC[C@H]1CN(c2ccc(-c3ccc([C@@H](O)CNCc4ccncc4)cc3)c(F)c2)C(=O)O1 [Compound 4201, N-[3-(2-Fluoro-4′-{1-(R)-hydroxy-2-[(pyridin-4-ylmethyl)-amino]-ethyl}-biphenyl-4-yl)-2-oxo-oxazolidin-5-(S)-ylmethyl]-acetamide]",2
3,"CC(=O)NC[C@H]1CN(c2ccc(-c3ccc(S(=O)(=O)NCc4ccccn4)cc3)c(F)c2)C(=O)O1 [Compound 3006, N-(3-{2-Fluoro-4′-[(pyridin-2-ylmethyl)-sulfamoyl]-biphenyl-4-yl}-2-oxo-oxazolidin-5-(S)-ylmethyl)-acetamide]",16
4,"CC(=O)NC[C@H]1CN(c2ccc(-c3ccc(C(N)c4nnn(C)n4)cc3)c(F)c2)C(=O)O1 (mixture of isomers) [Compound 1042, N-(3-{4′-[Amino-(2-methyl-2H-tetrazol-5-(R/S)-yl)-methyl]-2-fluoro-biphenyl-4-yl}-2-oxo-oxazolidin-5-(S)-ylmethyl)-acetamide]",64
5,"CC(=O)NC[C@H]1CN(c2ccc(-c3ccc(CN(C)Cc4ccccn4)cc3)c(F)c2)C(=O)O1 [Compound 4045, N-(3-{2-Fluoro-4′-[(methyl-pyridin-2-ylmethyl-amino)-methyl]-biphenyl-4-yl}-2-oxo-oxazolidin-5-(S)-ylmethyl)-acetamide]",2
6,"CC(=O)NC[C@H]1CN(c2ccc(-c3ccc(CNC(=O)Nc4ccncc4)cc3)c(F)c2)C(=O)O1 [Compound 5012, N-(3-{2-Fluoro-4′-[(3-pyridin-4-yl-ureido)-methyl]-biphenyl-4-yl}-2-oxo-oxazolidin-5-(S)-ylmethyl)-acetamide]",2
7,"CC(=O)NC[C@H]1CN(c2ccc(-c3ccc(CNC(=O)[C@H](N)Cc4c[nH]c5ccccc45)cc3)c(F)c2)C(=O)O1 [Compound 4307, N-{4′-[5-(S)-(Acetylamino-methyl)-2-oxo-oxazolidin-3-yl]-2′-fluoro-biphenyl-4-ylmethyl}-2-(R)-amino-3-(1H-indol-3-yl)-propionamide]",2
8,"CC(=O)NC[C@H]1CC(c2ccc(-c3ccc(CNC(=O)c4ccccc4C(=O)O)cc3)nc2)=NO1 [Compound 4107, N-(4-{5-[5-(R)-(Acetylamino-methyl)-4,5-(S)-dihydro-isoxazol-3-yl]-pyridin-2-yl}-benzyl)-phthalamic acid]",128
9,"CC(=O)NC[C@H]1CN(c2ccc(-c3ccc(CN[C@@H](Cc4c[nH]c5ccccc45)C(N)=O)cc3)c(F)c2)C(=O)O1 [Compound 4175, 2-({4′-[5-(S)-(Acetylamino-methyl)-2-oxo-oxazolidin-3-yl]-2′-fluoro-biphenyl-4-ylmethyl}-amino)-3-(S)-(1H-indol-3-yl)-propionamide]",2
10,"CC(=O)NC[C@H]1CN(c2ccc(-c3ccc(CNC(=O)C4CCC(=O)N4)cc3)c(F)c2)C(=O)O1 (stereo partly drawn) [Compound 4289, 5-Oxo-pyrrolidine-2-carboxylic acid {4′-[5-(S)-(acetylamino-methyl)-2-oxo-oxazolidin-3-yl]-2′-fluoro-biphenyl-4-ylmethyl}-amide]",8
11,"CC(=O)NC[C@H]1CN(c2ccc(-c3ccc(CNCC4CCNCC4)cc3)c(F)c2)C(=O)O1 [Compound 4186, N-[3-(2-Fluoro-4′-{[(piperidin-4-ylmethyl)-amino]-methyl}-biphenyl-4-yl)-2-oxo-oxazolidin-5-(S)-ylmethyl]-acetamide]",64
12,"CC(=O)NC[C@H]1CN(c2ccc(-c3ccc(CNCc4cnc[nH]4)cc3)c(F)c2)C(=O)O1 [Compound 4066, N-[3-(2-Fluoro-4′-{[(3H-imidazol-4-ylmethyl)-amino]-methyl}-biphenyl-4-yl)-2-oxo-oxazolidin-5-(S)-ylmethyl]-acetamide]",8
13,"CC(=O)NC[C@H]1CN(c2ccc(-c3ccc(CN(CCCF)OCc4ccccc4)cc3)c(F)c2)C(=O)O1 [Compound 4265, N-[3-(4′-{[Benzyloxy-(3-fluoro-propyl)-amino]-methyl}-2-fluoro-biphenyl-4-yl)-2-oxo-oxazolidin-5-(S)-ylmethyl]-acetamide]",4
14,"CC(=O)NC[C@H]1CN(c2ccc(-c3ccc(C(=O)NCCc4cnc[nH]4)nc3)c(F)c2)C(=O)O1 [Compound 4223, 5-{4-[5-(S)-(Acetylamino-methyl)-2-oxo-oxazolidin-3-yl]-2-fluoro-phenyl}-pyridine-2-carboxylic acid [2-(3H-imidazol-4-yl)-ethyl]-amide]",2

# Next, values leading:
row,MIC [µg/mL],Compound
1,2,"CC(=O)NC[C@H]1CN(c2ccc(-c3ccc(CNCc4cc[n+]([O-])cc4)cc3)c(F)c2)C(=O)O1 [Compound 4245, N-[3-(2-Fluoro-4′-{[(1-oxy-pyridin-4-ylmethyl)-amino]-methyl}-biphenyl-4-yl)-2-oxo-oxazolidin-5-(S)-ylmethyl]-acetamide]"
2,0.5,"O=C(NC[C@H]1CN(c2ccc(-c3ccc(Cn4cnnn4)cc3)c(F)c2)C(=O)O1)C(Cl)Cl [Compound 1034, 2,2-Dichloro-N-[3-(2-fluoro-4′-tetrazol-1-ylmethyl-biphenyl-4-yl)-2-oxo-oxazolidin-5-(S)-ylmethyl]-acetamide]"
3,1,"CC(=O)NC[C@H]1CN(c2ccc(-c3ccc(Cn4cc(C)nc4C)cc3)c(F)c2)C(=O)O1 [Compound 1068, N-{3-[4′-(2,4-Dimethyl-imidazol-1-ylmethyl)-2-fluoro-biphenyl-4-yl]-2-oxo-oxazolidin-5-(S)-ylmethyl}-acetamide]"
4,0.5,"CC(=O)NC[C@H]1CN(c2ccc(-c3ccc(CNCC4OCCO4)cc3)c(F)c2)C(=O)O1 [Compound 4209, N-[3-(4′-{[([1,3]Dioxolan-2-ylmethyl)-amino]-methyl}-2-fluoro-biphenyl-4-yl)-2-oxo-oxazolidin-5-(S)-ylmethyl]-acetamide]"
5,0.5,"CC(=O)NC[C@H]1CN(c2ccc(-c3ccc(Cn4ccnc4)cc3)c(F)c2)C(=O)O1 [Compound 1008, N-[3-(2-Fluoro-4′-imidazol-1-ylmethyl-biphenyl-4-yl)-2-oxo-oxazolidin-5-(S)-ylmethyl]-acetamide]"
6,1,"CC(=O)NC[C@H]1CN(c2ccc(-c3ccc(CN4CCCC(F)C4)cc3)c(F)c2)C(=O)O1 (mixture of isomers) [Compound 1096, N-{3-[2-Fluoro-4′-(3-(R/S)-fluoro-piperidin-1-ylmethyl)-biphenyl-4-yl]-2-oxo-oxazolidin-5-(S)-ylmethyl}-acetamide]"
7,1,"CC(=O)NC[C@H]1CN(c2ccc(-c3ccc(C[S+]([O-])c4nncs4)cc3)c(F)c2)C(=O)O1 (stereo partly drawn) [Compound 2035, N-{3-[2-Fluoro-4′-([1,3,4]thiadiazole-2-sulfinylmethyl)-biphenyl-4-yl]-2-oxo-oxazolidin-5-(S)-ylmethyl}-acetamide]"
8,1,"CC(=O)NC[C@H]1CN(c2ccc(-c3ccc(CNn4cnnc4)cc3)c(F)c2)C(=O)O1 [Compound 2046, N-{3-[2-Fluoro-4′-([1,2,4]triazol-4-ylaminomethyl)-biphenyl-4-yl]-2-oxo-oxazolidin-5-(S)-ylmethyl}-acetamide]"
